# Several values for one entry are separate records, joined by “and”; a condition that tells them apart may be missing. Equal values may be shown once.
# Tested on: 422866-222-R5-J1-PDC complex spheroids viability
# Assay: Anticancer human tumor 422866-222-R5-J1-PDC patient-derived pancreatic adenocarcinoma cell line growth inhibition [RAS]
# Conditions: for viability, T/C: stronger effect = lower value
# In short: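 Agents were tested in combination matrices in half-log decrements from a top concentration at or near clinical Cmax (10 microM if undetermined). Targets were multi-cell spheroids of tumour lines plus HUVEC and MSC stromal cells.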
# [1] = curve of first compound, second compound 0.0316 µM
# [2] = curve of first compound, second compound 0.1 µM
# [3] = curve of first compound, second compound 0.316 µM
# [4] = curve of first compound, second compound 1 µM
# [5] = curve of first compound, second compound 3.16 µM
# [6] = curve of first compound, second compound 10 µM
# [7] = second compound 0.0316 µM, first compound 0.0316 µM
# [8] = second compound 0.0316 µM, first compound 0.1 µM
# [9] = second compound 0.0316 µM, first compound 0.316 µM
# [10] = second compound 0.0316 µM, first compound 1 µM
# [11] = second compound 0.1 µM, first compound 0.0316 µM
# [12] = second compound 0.1 µM, first compound 0.1 µM
# [13] = second compound 0.1 µM, first compound 0.316 µM
# [14] = second compound 0.1 µM, first compound 1 µM
# [15] = second compound 0.316 µM, first compound 0.0316 µM
# [16] = second compound 0.316 µM, first compound 0.1 µM
# [17] = second compound 0.316 µM, first compound 0.316 µM
# [18] = second compound 0.316 µM, first compound 1 µM
# [19] = second compound 1 µM, first compound 0.0316 µM
# [20] = second compound 1 µM, first compound 0.1 µM
# [21] = second compound 1 µM, first compound 0.316 µM
# [22] = second compound 1 µM, first compound 1 µM
# [23] = second compound 3.16 µM, first compound 0.0316 µM
# [24] = second compound 3.16 µM, first compound 0.1 µM
# [25] = second compound 3.16 µM, first compound 0.316 µM
# [26] = second compound 3.16 µM, first compound 1 µM
# [27] = second compound 10 µM, first compound 0.0316 µM
# [28] = second compound 10 µM, first compound 0.1 µM
# [29] = second compound 10 µM, first compound 0.316 µM
# [30] = second compound 10 µM, first compound 1 µM
# [31] = second compound 0.0316 µM, first compound 3.16 µM
# [32] = second compound 0.0316 µM, first compound 10 µM
# [33] = second compound 0.1 µM, first compound 3.16 µM
# [34] = second compound 0.1 µM, first compound 10 µM
# [35] = second compound 0.316 µM, first compound 3.16 µM
# [36] = second compound 0.316 µM, first compound 10 µM
# [37] = second compound 1 µM, first compound 3.16 µM
# [38] = second compound 1 µM, first compound 10 µM
# [39] = second compound 3.16 µM, first compound 3.16 µM
# [40] = second compound 3.16 µM, first compound 10 µM
# [41] = second compound 10 µM, first compound 3.16 µM
# [42] = second compound 10 µM, first compound 10 µM
# 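Also: spheroids exposed to compounds for 7 days.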
# 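For viability, T/C in this document: 100% = DMSO vehicle control viability.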
smiles,measurement,setting,value
Nc1ccn(C2OC(CO)C(O)C2(F)F)c(=O)n1 (stereo not given) + C#Cc1c(F)ccc2cc(O)cc(-c3ncc4c(N5CC6CCC(C5)N6)nc(OCC56CCCN5CC(F)C6)nc4c3F)c12,IC50,[1],113 nM
same,IC50,[2],29.2 nM
same,IC50,[3],15.9 nM
same,IC50,[4],< 3.16 nM
same,IC50,[5],< 3.16 nM
same,IC50,[6],< 3.16 nM
same,"viability, T/C","second compound 0.0316 µM, first compound 0.00316 µM",90.8%
same,"viability, T/C","second compound 0.0316 µM, first compound 0.01 µM",84.9%
same,"viability, T/C",[7],65.7%
same,"viability, T/C",[8],51.1%
same,"viability, T/C",[9],42.1%
same,"viability, T/C",[10],34.1%
same,"viability, T/C","second compound 0.1 µM, first compound 0.00316 µM",108%
same,"viability, T/C","second compound 0.1 µM, first compound 0.01 µM",65.6%
same,"viability, T/C",[11],52.4%
same,"viability, T/C",[12],37.6%
same,"viability, T/C",[13],39.6%
same,"viability, T/C",[14],38.5%
same,"viability, T/C","second compound 0.316 µM, first compound 0.00316 µM",63.9%
same,"viability, T/C","second compound 0.316 µM, first compound 0.01 µM",49.8%
same,"viability, T/C",[15],48.8%
same,"viability, T/C",[16],45.6%
same,"viability, T/C",[17],38.1%
same,"viability, T/C",[18],41.9%
same,"viability, T/C","second compound 1 µM, first compound 0.00316 µM",41.2%
same,"viability, T/C","second compound 1 µM, first compound 0.01 µM",41.3%
same,"viability, T/C",[19],32.4%
same,"viability, T/C",[20],35.9%
same,"viability, T/C",[21],33.3%
same,"viability, T/C",[22],25.5%
same,"viability, T/C","second compound 3.16 µM, first compound 0.00316 µM",25.8%
same,"viability, T/C","second compound 3.16 µM, first compound 0.01 µM",29.7%
same,"viability, T/C",[23],24.5%
same,"viability, T/C",[24],27.7%
same,"viability, T/C",[25],23.4%
same,"viability, T/C",[26],23%
same,"viability, T/C","second compound 10 µM, first compound 0.00316 µM",24.8%
same,"viability, T/C","second compound 10 µM, first compound 0.01 µM",26.2%
same,"viability, T/C",[27],23.3%
same,"viability, T/C",[28],19.8%
same,"viability, T/C",[29],21.6%
same,"viability, T/C",[30],17.8%
CC(Nc1ccc2c(c1)OCCn1cc(N3C(=O)OCC3C(F)F)nc1-2)C(N)=O (stereo not given) + C#Cc1c(F)ccc2cc(O)cc(-c3ncc4c(N5CC6CCC(C5)N6)nc(OCC56CCCN5CC(F)C6)nc4c3F)c12,IC50,[1],93.5 nM
same,IC50,[2],81.5 nM
same,IC50,[3],33.4 nM
same,IC50,[4],< 31.6 nM
same,IC50,[5],< 31.6 nM
same,IC50,[6],< 31.6 nM
same,"viability, T/C",[7],77%
same,"viability, T/C",[8],46.7%
same,"viability, T/C",[9],33.1%
same,"viability, T/C",[10],37.9%
same,"viability, T/C",[31],26.1%
same,"viability, T/C",[32],22.2%
same,"viability, T/C",[11],73.3%
same,"viability, T/C",[12],44.8%
same,"viability, T/C",[13],30.9%
same,"viability, T/C",[14],24.7%
same,"viability, T/C",[33],23%
same,"viability, T/C",[34],19.9%
same,"viability, T/C",[15],50.6%
same,"viability, T/C",[16],38.6%
same,"viability, T/C",[17],29.8%
same,"viability, T/C",[18],21.6%
same,"viability, T/C",[35],19%
same,"viability, T/C",[36],18.7%
same,"viability, T/C",[19],37.3%
same,"viability, T/C",[20],26.5%
same,"viability, T/C",[21],22.5%
same,"viability, T/C",[22],14.5%
same,"viability, T/C",[37],13.6%
same,"viability, T/C",[38],12.7%
same,"viability, T/C",[23],22.2%
same,"viability, T/C",[24],19.2%
same,"viability, T/C",[25],13%
same,"viability, T/C",[26],10.5%
same,"viability, T/C",[39],9.41%
same,"viability, T/C",[40],9.38%
same,"viability, T/C",[27],13.7%
same,"viability, T/C",[28],11.8%
same,"viability, T/C",[29],8.74%
same,"viability, T/C",[30],6.04%
same,"viability, T/C",[41],7.1%
same,"viability, T/C",[42],7.04%
C=CC(=O)Nc1cc(Nc2nccc(-c3cn(C)c4ccccc34)n2)c(OC)cc1N(C)CCN(C)C,"viability, T/C",compound 0.00316 µM,106% [middle of 4 runs]
same,"viability, T/C",compound 0.01 µM,74.7% and 114% (2×) and 81.9%
same,"viability, T/C",compound 0.0316 µM,87.1% [middle of 4 runs]
same,"viability, T/C",compound 0.316 µM,77.7% [middle of 4 runs]
same,IC50,curve of compound,> 1000 nM
CC(C)NCC(C(=O)N1CCN(c2ncnc3c2C(C)CC3O)CC1)c1ccc(Cl)cc1 (stereo not given),"viability, T/C",compound 0.0316 µM,92.2% [middle of 4 runs]
same,"viability, T/C",compound 0.1 µM,93.6% [middle of 4 runs]
same,"viability, T/C",compound 10 µM,133% (2×) and 147% and 160%
same,IC50,curve of compound,> 10000 nM
CC(=O)OC12COC1CC(O)C1(C)C(=O)C(O)C3=C(C)C(OC(=O)C(O)C(NC(=O)OC(C)(C)C)c4ccccc4)CC(O)(C(OC(=O)c4ccccc4)C21)C3(C)C (stereo not given) + C#Cc1c(F)ccc2cc(O)cc(-c3ncc4c(N5CC6CCC(C5)N6)nc(OCC56CCCN5CC(F)C6)nc4c3F)c12,IC50,[1],> 10000 nM
same,IC50,[2],> 10000 nM
same,IC50,[3],31.6 nM
same,IC50,[4],< 31.6 nM
same,IC50,[5],< 31.6 nM
same,IC50,[6],< 31.6 nM
same,"viability, T/C",[7],55.1%
same,"viability, T/C",[8],74.1%
same,"viability, T/C",[9],77%
same,"viability, T/C",[10],83.1%
same,"viability, T/C",[31],76.5%
same,"viability, T/C",[32],69.7%
same,"viability, T/C",[11],70.7%
same,"viability, T/C",[12],61.3%
same,"viability, T/C",[13],56.5%
same,"viability, T/C",[14],65.5%
same,"viability, T/C",[33],64.1%
same,"viability, T/C",[34],61.7%
same,"viability, T/C",[15],55.7%
same,"viability, T/C",[16],48.2%
same,"viability, T/C",[17],46.6%
same,"viability, T/C",[18],56.8%
same,"viability, T/C",[35],67.4%
same,"viability, T/C",[36],55.1%
same,"viability, T/C",[19],34%
same,"viability, T/C",[20],33.1%
same,"viability, T/C",[21],37.5%
same,"viability, T/C",[22],36.5%
same,"viability, T/C",[37],41%
same,"viability, T/C",[38],35.4%
same,"viability, T/C",[23],21.2%
same,"viability, T/C",[24],27.4%
same,"viability, T/C",[25],29.6%
same,"viability, T/C",[26],29.6%
same,"viability, T/C",[39],32%
same,"viability, T/C",[40],29.5%
same,"viability, T/C",[27],23.1%
same,"viability, T/C",[28],22.2%
same,"viability, T/C",[29],22.2%
same,"viability, T/C",[30],20.9%
same,"viability, T/C",[41],24.1%
same,"viability, T/C",[42],22.9%
CCc1c2c(nc3ccc(O)cc13)-c1cc3c(c(=O)n1C2)COC(=O)[C@]3(O)CC,"viability, T/C",compound 0.000949 µM,77.2% [middle of 4 runs]
same,"viability, T/C",compound 0.003 µM,51.2% [middle of 4 runs]
same,"viability, T/C",compound 0.00949 µM,51.5% [middle of 4 runs]
same,"viability, T/C",compound 0.03 µM,53.4% [middle of 4 runs]
same,"viability, T/C",compound 0.3 µM,41.4% [middle of 4 runs]
